The source of these data is US20240174634A1, “Aldehyde Dehydrogenase Inhibitors and Their Therapeutic Use” (priority 2020, published 2024).

By IC50 is commonly meant the concentration that inhibits the measured activity by half.

This experiment has as its target T1, ALDH2 (Homo sapiens, UniProt P05091).
T1 sequence (P05091 18-517): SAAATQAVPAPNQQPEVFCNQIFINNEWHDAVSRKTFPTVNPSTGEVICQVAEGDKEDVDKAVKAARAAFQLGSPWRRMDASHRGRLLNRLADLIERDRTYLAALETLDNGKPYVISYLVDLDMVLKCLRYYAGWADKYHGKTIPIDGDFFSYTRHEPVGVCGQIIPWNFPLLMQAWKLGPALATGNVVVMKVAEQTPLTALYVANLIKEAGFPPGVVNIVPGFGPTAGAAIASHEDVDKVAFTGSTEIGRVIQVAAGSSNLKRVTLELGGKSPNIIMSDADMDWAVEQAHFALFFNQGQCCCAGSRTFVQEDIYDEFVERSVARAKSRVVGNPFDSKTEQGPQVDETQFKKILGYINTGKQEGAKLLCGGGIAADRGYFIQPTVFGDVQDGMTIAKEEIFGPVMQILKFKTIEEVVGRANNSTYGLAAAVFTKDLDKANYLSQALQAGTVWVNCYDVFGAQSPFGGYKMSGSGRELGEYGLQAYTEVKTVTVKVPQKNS
Description: Selectivity biochemical assay, NAD(P)H-Glo Detection System. The procedure:
Materials: ALDH2 was purchased from Abnova. Tris(hydroxymethyl)aminomethane (Tris) was purchased from MP Biomedicals. TCEP, ethylenediaminetetraacetic acid (EDTA), propionaldehyde, DMSO and Tween-20 were purchased from Sigma. Nicotinamide adenine dinucleotide (NAD) was obtained from Abcam. The NAD(P)H-Glo™ Detection System was purchased from Promega. White, non-binding surface, 384 well plates were supplied by Corning (#3574).
Method: Inhibition of ALDH1A3 was assessed using the NAD(P)H-Glo™ Detection System (Cat. No. G9062) from Promega. This assay detects the production of NADH from NAD by ALDH1A3 via the coupled enzymatic conversion of a proluciferin reductase substrate to generate a luminescent signal. Inhibition of ALDH1A3 by small molecule inhibitors will result in reduction or abrogation of luminescence signal increase above background. Inhibition of ALDH1A1, ALDH1A2 and ALDH2 (selectivity assays) were assessed using the same assay.
Compounds were dosed into Corning 384 well assay plates using an Echo acoustic dispenser to give 10 point curves in a 3-fold dilution series. Compounds were dispensed from a 20 mM DMSO stock and initially screened at a top concentration of 20 μM (ALDH1A3) or 250 μM (ALDH1A1, ALDH1A2 & ALDH2). Enzyme was added to the plate in a 5 μL volume, according to the final concentrations in table 1 below, and pre-incubated with compound for 30 minutes at room temperature before the addition of 5 μL of the substrate (propionaldehyde) and cofactor (NAD), to effect final concentrations equal to the Km as shown in Table 1. The assay buffer used consisted of 40 mM Tris for 1A1 (pH 7.6), 1A2 (pH 7.6) and 1A3 (pH 9.0) and 10 mM Tris for ALDH2 (pH 8.0) supplemented with 1 mM TCEP, 0.01% Tween-20, 0.1 mM EDTA. The reaction mix was incubated at 26° C. on a shaking incubator for 30 minutes before being stopped by the addition of 10 μL of the Promega detection reagent and 100×IC50 of inhibitors of the respective isoforms. After stopping the reaction the plate was incubated for 60 minutes at room temperature and the luminescence signal read on a PheraStar FS microplate reader (BMG Labtech) and resulting IC50 values were calculated using Dotmatics software.
Enzyme, substrate and cofactor concentrations were selected to ensure the reaction ran under initial velocity conditions.
In the case of `Cc1ccccc1C1CCCN1CCOc1ccc2c(c1)CCC(=O)N2` (stereo not drawn) [ALDHI-2012, 6-[2-[2-(o-tolyl)pyrrolidin-1-yl]ethoxy]-3,4-dihydro-1H-quinolin-2-one], the IC50 is ≥ 100 µM. For `O=C1CCc2cc(OCCN3CCCC3c3cccs3)ccc2N1` (stereo not drawn) [ALDHI-2013, 6-[2-[2-(2-thienyl)pyrrolidin-1-yl]ethoxy]-3,4-dihydro-1H-quinolin-2-one], the IC50 was ≥ 100 µM.

Regarding `O=C1CCc2cc(OCCN3CCCC3c3ccsc3)ccc2N1` (stereo not drawn) [ALDHI-2014, 6-[2-[2-(3-thienyl)pyrrolidin-1-yl]ethoxy]-3,4-dihydro-1H-quinolin-2-one], the IC50 is ≥ 100 µM. The figure for `CCn1cc(C2CCCN2CCOc2ccc3c(c2)CCC(=O)N3)cn1` (stereo not drawn) [ALDHI-2016, 6-[2-[2-(1-ethylpyrazol-4-yl)pyrrolidin-1-yl]ethoxy]-3,4-dihydro-1H-quinolin-2-one] is ≥ 100 µM. Consider `O=C1CCc2cc(OCCN3CCC[C@H]3c3cccc(F)c3)ccc2N1` [ALDHI-2018, 6-[2-[(2S)-2-(3-fluorophenyl)pyrrolidin-1-yl]ethoxy]-3,4-dihydro-1H-quinolin-2-one], for which the IC50 was ≥ 100 µM. With `O=C1CCc2cc(OCCN3CCCC3c3ccccc3)ccc2N1` (stereo not drawn) [ALDHI-2019, 6-[2-(2-phenylpyrrolidin-1-yl)ethoxy]-3,4-dihydro-1H-quinolin-2-one], the IC50 is ≥ 100 µM. On to `O=C1CCCc2cc(OCCN3CCCC3c3cccc(F)c3)ccc2N1` (stereo not drawn) [ALDHI-2020, 7-[2-[2-(3-fluorophenyl)pyrrolidin-1-yl]ethoxy]-1,3,4,5-tetrahydro-1-benzazepin-2-one], for which the IC50 is ≥ 100 µM. Regarding `O=C1CCc2cc(OCCN3CCC3c3cccc(F)c3)ccc2N1` (stereo not drawn) [ALDHI-2021, 6-[2-[2-(3-fluorophenyl)azetidin-1-yl]ethoxy]-3,4-dihydro-1H-quinolin-2-one], the IC50 is ≥ 100 µM. Take `O=c1ccc2cc(OCCN3CCCC3c3cccc(F)c3)ccc2[nH]1` (stereo not drawn) [ALDHI-2022, 6-[2-[2-(3-fluorophenyl)pyrrolidin-1-yl]ethoxy]-1H-quinolin-2-one]: the IC50 was ≥ 100 µM.

Take `O=C1CCc2cc(OCCn3nccc3-c3cccc(F)c3)ccc2N1` [ALDHI-2023, 6-[2-[5-(3-fluorophenyl)pyrazol-1-yl]ethoxy]-3,4-dihydro-1H-quinolin-2-one]: the IC50 was ≥ 100 µM. The figure for `Cn1cc(C2CCCN2CCOc2ccc3c(c2)SCC(=O)N3)cn1` (stereo not drawn) [ALDHI-2026, 7-[2-[2-(1-methylpyrazol-4-yl)pyrrolidin-1-yl]ethoxy]-4H-1,4-benzothiazin-3-one] is ≥ 100 µM; for `O=C1CSc2cc(OCCN3CCCC3c3ccccn3)ccc2N1` (stereo not drawn) [ALDHI-2027, 7-[2-[2-(2-pyridyl)pyrrolidin-1-yl]ethoxy]-4H-1,4-benzothiazin-3-one] it is ≥ 100 µM. Under `O=C1CSc2cc(OCCN3CCCC3c3cccnc3)ccc2N1` (stereo not drawn) [ALDHI-2028, 7-[2-[2-(3-pyridyl)pyrrolidin-1-yl]ethoxy]-4H-1,4-benzothiazin-3-one] stands ≥ 100 µM; under `O=C1CSc2cc(OCCN3CCCC3c3ccncc3)ccc2N1` (stereo not drawn) [ALDHI-2029, 7-[2-[2-(4-pyridyl)pyrrolidin-1-yl]ethoxy]-4H-1,4-benzothiazin-3-one], ≥ 100 µM. Under `Cc1ccc(C2CCCN2CCOc2ccc3c(c2)CCC(=O)N3)cn1` (stereo not drawn) [ALDHI-2030, 6-[2-[2-(6-methyl-3-pyridyl)pyrrolidin-1-yl]ethoxy]-3,4-dihydro-1H-quinolin-2-one] stands ≥ 100 µM; under `O=C1CCc2cc(OCCN3CCOCC3c3cccc(F)c3)ccc2N1` (stereo not drawn) [ALDHI-2031, 6-[2-[3-(3-fluorophenyl)morpholin-4-yl]ethoxy]-3,4-dihydro-1H-quinolin-2-one], ≥ 100 µM; under `O=C1CCc2cc(OCCN3CCCC3c3cc(F)cc(F)c3)ccc2N1` (stereo not drawn) [ALDHI-2032, 6-[2-[2-(3,5-difluorophenyl)pyrrolidin-1-yl]ethoxy]-3,4-dihydro-1H-quinolin-2-one], ≥ 100 µM. As for `Cc1nc(C2CCCN2CCOc2ccc3c(c2)CCC(=O)N3)cs1` (stereo not drawn) [ALDHI-2033, 6-[2-[2-(2-methylthiazol-4-yl)pyrrolidin-1-yl]ethoxy]-3,4-dihydro-1H-quinolin-2-one], the IC50 is ≥ 100 µM. The figure for `COc1cccc(C2CCCN2CCOc2ccc3c(c2)CCC(=O)N3)c1` (stereo not drawn) [ALDHI-2034, 6-[2-[2-(3-methoxyphenyl)pyrrolidin-1-yl]ethoxy]-3,4-dihydro-1H-quinolin-2-one] is ≥ 100 µM. Consider `CC1(c2cccc(F)c2)CCCN1CCOc1ccc2c(c1)CCC(=O)N2` (stereo not drawn) [ALDHI-2037, 6-[2-[2-(3-fluorophenyl)-2-methyl-pyrrolidin-1-yl]ethoxy]-3,4-dihydro-1H-quinolin-2-one], for which the half-inhibitory concentration (IC50) is ≥ 100 µM. With `O=C1CCc2cc(OCCN3CCCCC3c3cccc(F)c3)ccc2N1` (stereo not drawn) [ALDHI-2038, 6-[2-[2-(3-fluorophenyl)-1-piperidyl]ethoxy]-3,4-dihydro-1H-quinolin-2-one], the IC50 was ≥ 100 µM. The figure for `O=C1CCc2cc(OCCN3CCCC3c3ccc(F)c(F)c3)ccc2N1` (stereo not drawn) [ALDHI-2039, 6-[2-[2-(3,4-difluorophenyl)pyrrolidin-1-yl]ethoxy]-3,4-dihydro-1H-quinolin-2-one] is ≥ 100 µM; for `CC1(c2ccccc2)COCCN1CCOc1ccc2c(c1)CCC(=O)N2` (stereo not drawn) [ALDHI-2040, 6-[2-(3-methyl-3-phenyl-morpholin-4-yl)ethoxy]-3,4-dihydro-1H-quinolin-2-one] it is ≥ 100 µM; for `O=C1CCc2cc(OCCn3ccnc3-c3ccccc3)ccc2N1` [ALDHI-2041, 6-[2-(2-phenylimidazol-1-yl)ethoxy]-3,4-dihydro-1H-quinolin-2-one] it is ≥ 100 µM.

Regarding `CC1(C)Oc2cc(OCCN3CCCC3c3cccc(F)c3)ccc2NC1=O` (stereo not drawn) [ALDHI-2043, 7-[2-[2-(3-fluorophenyl)pyrrolidin-1-yl]ethoxy]-2,2-dimethyl-4H-1,4-benzoxazin-3-one], the IC50 is ≥ 100 µM. The figure for `CC1Oc2cc(OCCN3CCCC3c3cccc(F)c3)ccc2NC1=O` (stereo not drawn) [ALDHI-2044, 7-[2-[2-(3-fluorophenyl)pyrrolidin-1-yl]ethoxy]-2-methyl-4H-1,4-benzoxazin-3-one] is ≥ 100 µM. In the case of `CCC1Oc2cc(OCCN3CCCC3c3cccc(F)c3)ccc2NC1=O` (stereo not drawn) [ALDHI-2045, 2-ethyl-7-[2-[2-(3-fluorophenyl)pyrrolidin-1-yl]ethoxy]-4H-1,4-benzoxazin-3-one], the half-inhibitory concentration (IC50) was ≥ 100 µM.

Take `CC1Cc2cc(OCCN3CCCC3c3cccc(F)c3)ccc2NC1=O` (stereo not drawn) [ALDHI-2048, 6-[2-[2-(3-fluorophenyl)pyrrolidin-1-yl]ethoxy]-3-methyl-3,4-dihydro-1H-quinolin-2-one]: the IC50 was ≥ 100 µM. The figure for `O=C1CCc2cc(OCCN3CCCC3c3cccc(F)c3)c(F)cc2N1` (stereo not drawn) [ALDHI-2050, 7-fluoro-6-[2-[2-(3-fluorophenyl)pyrrolidin-1-yl]ethoxy]-3,4-dihydro-1H-quinolin-2-one] is ≥ 100 µM; for `O=C1CCc2cc(OCCN3C(=O)CCC3c3ccccc3)ccc2N1` (stereo not drawn) [ALDHI-2051, 6-[2-(2-oxo-5-phenyl-pyrrolidin-1-yl)ethoxy]-3,4-dihydro-1H-quinolin-2-one] it is ≥ 100 µM; for `O=C1CCc2cc(OCCN3CC(F)CC3c3cccc(F)c3)ccc2N1` (stereo not drawn) [ALDHI-2052, 6-[2-[4-fluoro-2-(3-fluorophenyl)pyrrolidin-1-yl]ethoxy]-3,4-dihydro-1H-quinolin-2-one] it is ≥ 100 µM. As to `O=C1CCc2cc(OCCN3CC(F)(F)CC3c3cccc(F)c3)ccc2N1` (stereo not drawn) [ALDHI-2053, 6-[2-[4,4-difluoro-2-(3-fluorophenyl)pyrrolidin-1-yl]ethoxy]-3,4-dihydro-1H-quinolin-2-one], the IC50 was ≥ 100 µM. The figure for `CN(CCOc1ccc2c(c1)CCC(=O)N2)Cc1cccc(F)c1` [ALDHI-3001, 6-[2-[(3-fluorophenyl)methyl-methyl-amino]ethoxy]-3,4-dihydro-1H-quinolin-2-one] is ≥ 100 µM.
